{"source": "paper PMC11990103", "about": "“Anticancer Activity and Safety Profile of Novel 1-(4-Fluorophenoxyacetyl)-4-substituted Thio/Semicarbazide Derivatives” (Molecules, 2025)", "tested_on": "LNCaP prostate cancer cells", "test": "Cell cycle analysis by image cytometry (NucleoCounter NC-3000)", "format": "cell-based, human", "details": "48 h, AB2 at concentration corresponding to IC50", "experimental": "To further evaluate the anticancer activity of thiosemicarbazide derivative AB2 in G-361 and LNCaP cell lines, cell cycle analysis by image cytometry and detection of apoptosis using annexin V and propidium iodide was performed. Analyses of the action of AB2 on the distribution of cells in different phases of the cell cycle indicated a significant increase in the population of cells in the sub-G1 phase compared to the control cultures, in both tested prostate and melanoma cells. This population increased from 7% and 5% in control cells to 26% and 27% after exposure to AB2 in LNCaP and G-361 cells, respectively (Figure 8A). The increase in the cell population in the sub-G1 phase indicates the presence of apoptosis or necrosis in the investigated cells and not a significant inhibition of cell proliferation, i.e., a cytostatic effect.\nCell cycle analysis was assessed with the NucleoCounter NC-3000 (ChemoMetec, Allerod, Denmark) following the 2-Step Cell Cycle Assay protocol recommended by the manufacturer. The research was performed after 48 h incubation of prostate cancer cells (LNCaP) and melanoma cells (G-361) with AB2 compound in a concentration corresponding to IC50 value. Analysis was performed in line with the previously described methodology.", "data": [{"smiles": "O=C(COc1ccc(F)cc1)NNC(=S)Nc1ccccc1Cl", "note": "[AB2]", "values": [{"measurement": "cells in sub-G1 phase (M1)", "value": 26, "unit": "%"}]}]}
